Measured values from US9169254B2, “Spiroimidazolone derivative” (Chugai Seiyaku Kabushiki Kaisha, priority 2009, dated 2015).

biological target: T1, human PTH1 receptor (Homo sapiens, UniProt Q03431); assay: In vitro cAMP signal activity in HKRK-B7 cells (LLC-PK1 cells overexpressing the human PTH1 receptor); type: cell-based; details: HKRK-B7 cells; compound at 1×10^−3 M; cAMP produced as percentage of that produced by hPTH(1-34) at 100 nM
T1 sequence (Q03431 27-593): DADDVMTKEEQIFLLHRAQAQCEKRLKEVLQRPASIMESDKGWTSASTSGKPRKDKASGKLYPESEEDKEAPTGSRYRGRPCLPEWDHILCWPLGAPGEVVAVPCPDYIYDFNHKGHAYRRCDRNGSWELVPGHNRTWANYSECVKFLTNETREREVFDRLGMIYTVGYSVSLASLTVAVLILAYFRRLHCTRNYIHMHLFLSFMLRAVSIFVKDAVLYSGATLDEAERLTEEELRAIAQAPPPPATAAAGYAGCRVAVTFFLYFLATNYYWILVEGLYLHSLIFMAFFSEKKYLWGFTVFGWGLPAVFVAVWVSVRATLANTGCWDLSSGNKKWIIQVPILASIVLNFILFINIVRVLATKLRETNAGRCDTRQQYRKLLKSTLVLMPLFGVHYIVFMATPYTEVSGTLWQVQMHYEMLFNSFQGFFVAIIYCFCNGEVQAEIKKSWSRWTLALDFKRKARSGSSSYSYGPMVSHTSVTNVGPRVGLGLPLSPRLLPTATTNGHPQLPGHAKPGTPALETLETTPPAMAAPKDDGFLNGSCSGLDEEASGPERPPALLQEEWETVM

Row | cAMP production activity (%) | Compound
1 | 18 | CO[C@H]1CC[C@@H](C2=NC3(CCN(S(=O)(=O)c4cccc(Cl)c4)CC3)C(=O)N2)CC1 [Compound 24, 8-(3-chloro-benzenesulfonyl)-2-(4-methoxy-cyclohexyl)-1,3,8-triaza-spiro[4.5]dec-1-en-4-one]
2 | 49 | Cc1cc(C(=O)N(C)C)ccc1CCS(=O)(=O)N1CCC2(CC1)N=C(N(C)c1ccc(C(F)(F)F)cc1)NC2=O [Compound 1400, 3,N,N-trimethyl-4-(2-{2-[methyl-(4-trifluoromethyl-phenyl)-amino]-4-oxo-1,3,8-triaza-spiro[4.5]dec-1-ene-8-sulfonyl}-ethyl)-benzamide]
3 | 18 | Cc1cc2ccc1CCS(=O)(=O)N1CCC3(CC1)N=C(NC3=O)c1cc(cc(C(F)(F)F)c1)OCCCCCNC(=O)CN(C)C2=O [Compound 1449]
4 | 50 | Cc1cc(C(=O)N2CCS(=O)(=O)CC2)cc(C)c1/C=C/S(=O)(=O)N1CCC2(CC1)N=C(C1CCC(C)CC1)NC2=O (stereo not shown) [Compound 1002, 8-{(E)-2-[4-(1,1-dioxo-1λ^6-thiomorpholine-4-carbonyl)-2,6-dimethyl-phenyl]-ethenesulfonyl}-2-(4-methyl-cyclohexyl)-1,3,8-triaza-spiro[4.5]dec-1-en-4-one]
5 | 98 | Cc1cc(N(C)C(N)=O)cc(C)c1CCS(=O)(=O)N1CCC2(CC1)N=C(C1CCC(CC(F)(F)F)CC1)NC2=O (stereo not shown) [Compound 936, 1-[3,5-Dimethyl-4-(2-{4-oxo-2-[4-(2,2,2-trifluoro-ethyl)-cyclohexyl]-1,3,8-triaza-spiro[4.5]dec-1-ene-8-sulfonyl}-ethyl)-phenyl]-1-methyl-urea]
6 | 80 | Cc1cc(C(=O)N(C)C)ccc1CCS(=O)(=O)N1CCC2(CC1)N=C(c1cccc(OC(F)(F)F)c1)NC2=O [Compound 99, 3,N,N-trimethyl-4-{2-[4-oxo-2-(3-trifluoromethoxy-phenyl)-1,3,8-triaza-spiro[4.5]dec-1-ene-8-sulfonyl]-ethyl}-benzamide]
7 | 71 | [2H]C([2H])([2H])C([2H])([2H])Oc1cc(C2=NC3(CCN(S(=O)(=O)/C=C/c4c(C)cc(C(=O)N5CCC(O)(CF)CC5)cc4C)CC3)C(=O)N2)ccc1F [Compound 1272, 2-(3-[1,1,2,2,2-^2H5]ethoxy-4-fluoro-phenyl)-8-{(E)-2-[4-(4-fluoromethyl-4-hydroxy-piperidine-1-carbonyl)-2,6-dimethyl-phenyl]-ethenesulfonyl}-1,3,8-triaza-spiro[4.5]dec-1-en-4-one]
8 | 63 | Cc1cc(C(=O)N(C)C)ccc1CCS(=O)(=O)N1CCC2(CC1)N=C(/C=C/c1ccccc1)NC2=O [Compound 142, 3,N,N-trimethyl-4-{2-[4-oxo-2-((E)-styryl)-1,3,8-triaza-spiro[4.5]dec-1-ene-8-sulfonyl]-ethyl}-benzamide]
9 | 86 | Cc1cc(N(C)C(N)=O)cc(C)c1CCS(=O)(=O)N1CCC2(CC1)N=C(C1CCC(CC=C(F)F)CC1)NC2=O (stereo not shown) [Compound 940, 1-[4-(2-{2-[4-(3,3-difluoro-allyl)-cyclohexyl]-4-oxo-1,3,8-triaza-spiro[4.5]dec-1-ene-8-sulfonyl}-ethyl)-3,5-dimethyl-phenyl]-1-methyl-urea]
10 | 68 | Cc1cc(C(=O)N2CCC(C)(O)CC2)cc(C)c1/C=C/S(=O)(=O)N1CCC2(CC1)N=C(c1ccc(C(F)(F)F)c(OCC(F)(F)C(F)(F)F)c1)NC2=O [Compound 1228, 8-{(E)-2-[4-(4-hydroxy-4-methyl-piperidine-1-carbonyl)-2,6-dimethyl-phenyl]-ethenesulfonyl}-2-[3-(2,2,3,3,3-pentafluoro-propoxy)-4-trifluoromethyl-phenyl]-1,3,8-triaza-spiro[4.5]dec-1-en-4-one]
11 | 116 | [2H]C([2H])([2H])N(C(N)=O)c1cc(C)c(CCS(=O)(=O)N2CCC3(CC2)N=C(c2ccc(F)c(C(F)(F)F)c2)NC3=O)c(C)c1 [Compound 1391, 1-(4-{2-[2-(4-fluoro-3-trifluoromethyl-phenyl)-4-oxo-1,3,8-triaza-spiro[4.5]dec-1-ene-8-sulfonyl]-ethyl}-3,5-dimethyl-phenyl)-1-[1,1,1-^2H3]methyl-urea]
12 | 65 | Cc1cc(C(=O)N2CCN(c3ncccn3)CC2)ccc1CCS(=O)(=O)N1CCC2(CC1)N=C(c1cccc(C(F)(F)F)c1)NC2=O [Compound 359, 8-{2-[2-methyl-4-(4-pyrimidin-2-yl-piperazine-1-carbonyl)-phenyl]-ethanesulfonyl}-2-(3-trifluoromethyl-phenyl)-1,3,8-triaza-spiro[4.5]dec-1-en-4-one]
13 | 35 | Cc1cc(Nc2nccs2)cc(C)c1/C=C/S(=O)(=O)N1CCC2(CC1)N=C(C1CCCCC1)NC2=O [Compound 573, 2-cyclohexyl-8-{(E)-2-[2,6-dimethyl-4-(thiazol-2-ylamino)-phenyl]-ethenesulfonyl}-1,3,8-triaza-spiro[4.5]dec-1-en-4-one]
14 | 55 | Cc1cc(N2C(=O)OCC2C)ccc1/C=C/S(=O)(=O)N1CCC2(CC1)N=C(C1CCC(C)CC1)NC2=O (stereo not shown) [Compound 579, 2-(4-methyl-cyclohexyl)-8-{(E)-2-[2-methyl-4-(4-methyl-2-oxo-oxazolidin-3-yl)-phenyl]-ethenesulfonyl}-1,3,8-triaza-spiro[4.5]dec-1-en-4-one]
15 | 16 | Cc1cc(N2C(=O)C(C)(C)C[C@@H]2CO)cc(C)c1/C=C/S(=O)(=O)N1CCC2(CC1)N=C(c1cccc(OC(F)(F)F)c1)NC2=O [Compound 712, 8-{(E)-2-[4-((R)-5-hydroxymethyl-3,3-dimethyl-2-oxo-pyrrolidin-1-yl)-2,6-dimethyl-phenyl]-ethenesulfonyl}-2-(3-trifluoromethoxy-phenyl)-1,3,8-triaza-spiro[4.5]dec-1-en-4-one]
16 | 43 | O=C1NC(C2CCCCC2)=NC12CCN(S(=O)(=O)CCc1cccc3ccccc13)CC2 [Compound 61, 2-cyclohexyl-8-(2-naphthalen-1-yl-ethanesulfonyl)-1,3,8-triaza-spiro[4.5]dec-1-en-4-one]
17 | 111 | Cc1cc(C(=O)N(C)C)ccc1CCS(=O)(=O)N1CCC2(CC1)N=C(c1cccc(C)c1C)NC2=O [Compound 113, 4-{2-[2-(2,3-dimethyl-phenyl)-4-oxo-1,3,8-triaza-spiro[4.5]dec-1-ene-8-sulfonyl]-ethyl}-3,N,N-trimethyl-benzamide]
18 | 101 | COc1c(N(C)C(N)=O)cc(C)c(CCS(=O)(=O)N2CCC3(CC2)N=C([C@H]2CC[C@H](C)CC2)NC3=O)c1C [Compound 684, 1-(2-methoxy-3,5-dimethyl-4-{2-[2-(4-methyl-cyclohexyl)-4-oxo-1,3,8-triaza-spiro[4.5]dec-1-ene-8-sulfonyl]-ethyl}-phenyl)-1-methyl-urea]
19 | 122 | CC(=O)Nc1ccc(CCS(=O)(=O)N2CCC3(CC2)N=C(c2cccc(C)c2C)NC3=O)c(C)c1 [Compound 146, N-(4-{2-[2-(2,3-dimethyl-phenyl)-4-oxo-1,3,8-triaza-spiro[4.5]dec-1-ene-8-sulfonyl]-ethyl}-3-methyl-phenyl)-acetamide]
20 | 62 | Cc1cc(C(=O)N2CCC(C)(O)CC2)cc(C)c1/C=C/S(=O)(=O)N1CCC2(CC1)N=C(c1ccc3c(c1)OCO3)NC2=O [Compound 1194, 2-benzo[1,3]dioxol-5-yl-8-{(E)-2-[4-(4-hydroxy-4-methyl-piperidine-1-carbonyl)-2,6-dimethyl-phenyl]-ethenesulfonyl}-1,3,8-triaza-spiro[4.5]dec-1-en-4-one]
21 | 83 | Cc1cc(N(C)C(N)=O)cc(C)c1CC[S@TB4](=O)(=O)N1CCC2(CC1)N=C(c1cccc(-c3cccc(-c4ccccc4)c3)c1)NC2=O [Compound 1155, 1-{3,5-dimethyl-4-[2-(4-oxo-2-[1,1′;3′,1″]terphenyl-3-yl-1,3,8-triaza-spiro[4.5]dec-1-ene-8-sulfonyl)-ethyl]-phenyl}-1-methyl-urea]
22 | 7.2 | Cc1cc2ccc1CCS(=O)(=O)N1CCC3(CC1)N=C(NC3=O)c1cc(cc(C(F)(F)F)c1)OCCCCCCCCN(C)C2=O [Compound 1412]
23 | 97 | Cc1cc(C(=O)N2CCSC2)ccc1CCS(=O)(=O)N1CCC2(CC1)N=C(c1cccc(OC(F)(F)F)c1)NC2=O [Compound 417, 8-{2-[2-methyl-4-(thiazolidine-3-carbonyl)-phenyl]-ethanesulfonyl}-2-(3-trifluoromethoxy-phenyl)-1,3,8-triaza-spiro[4.5]dec-1-en-4-one]

Row | Compound | cAMP production activity (%)
24 | O=C1NC(C2CCC(CCC(F)(F)F)CC2)=NC12CCN(S(=O)(=O)/C=C/c1cccc3c1ccn3CCOC[C@H](O)[C@@H](O)CO)CC2 (stereo partly drawn) [Compound 706, 2-[4-(3,3,3-trifluoro-propyl)-cyclohexyl]-8-((E)-2-{1-[2-((2S,3S)-2,3,4-trihydroxy-butoxy)-ethyl]-1H-indol-4-yl}-ethenesulfonyl)-1,3,8-triaza-spiro[4.5]dec-1-en-4-one] | 90
25 | CC(=O)OC[C@H](CN(C(C)=O)c1ccc(CCS(=O)(=O)N2CCC3(CC2)N=C(c2ccc(OC(F)(F)F)cc2)NC3=O)c(C)c1)OC(C)=O [Compound 152, acetic acid (S)-1-acetoxymethyl-2-[acetyl-(3-methyl-4-{2-[4-oxo-2-(4-trifluoromethoxy-phenyl)-1,3,8-triaza-spiro[4.5]dec-1-ene-8-sulfonyl]-ethyl}-phenyl)-amino]-ethyl ester] | 47
